Test system: phagocytic J774.2 murine macrophages
Assay: No-wash phagocytosis assay with dye-conjugated E. coli bioparticles
Format: cell-based
Conditions: E. coli bioparticles conjugated to a pH-sensitive fluorescent dye
From the text: Certain embodiments provide for a no-wash, no-quench assay for phagocytosis that is based on fluorogenic bioparticles comprising the pH-sensitive fluorescent dye compounds provided herein. Current protocols for measuring phagocytosis that use fluorescent bioparticles, require a trypan blue quenching step and several washing steps. These steps can introduce significant variability in the assay. To address this issue, provided herein is a no-wash phagocytosis kit, using E. coli bioparticles conjugated to a pH-sensitive fluorescent dye as described herein. These bioparticle conjugates are weakly fluorescent at extracellular pH. […] The pH-sensitive fluorescent bioparticles described herein may be used in plate based, as well as imaging and flow cytometry assays of phagocytosis.

Q: For `C=C1[C@@H](C)[C@H]2[C@H](Cc3ccccc3)NC(=O)[C@]23[C@H](OC(C)=O)/C=C/[C@@](C)(O)C(=O)[C@@H](C)C/C=C/[C@H]3[C@@H]1O` [cytochalaisin D, cytochalasin D], which “inhibition of uptake of the bioparticles (phagocytosis)” value is on record?
A: potently inhibited
